These results are taken from paper PMC7558282, “The Anticancer Activity for the Bumetanide-Based Analogs via Targeting the Tumor-Associated Membrane-Bound Human Carbonic Anhydrase-IX Enzyme” (Pharmaceuticals, 2020).

In one experiment the test system is A-498 cells. The experiment is described as follows: Annexin V/PI apoptotic assay in A-498. In kind it is cell-based, human. The conditions noted are these: 6 µM, 48 h; control 1.3%. How it is done:
The efficient antiproliferative activity of compound 9c on the kidney carcinoma A-498 cell line (Table 2) prompted a further investigation of its mechanistic growth inhibitory action. Thus, the impact of bumetanide analog 9c at 6 µM for 48 h on cell cycle distribution and induction of apoptosis in A-498 cells was next explored. […] Analysis of apoptosis was performed to determine the mode of cell death induced by 9c in A-498 cells. Compound 9c induced both early and late apoptosis in A-498 cells at 6 µM when compared to the untreated control cells (p < 0.01 and p < 0.001, respectively) (Figure 5A). […]
Figure 5 Compound 9c potently induces apoptosis in kidney carcinoma cell line A-498 cells (Annexin V/PI FACS). (A) Effect of compound 9c in A-498 cells analyzed by flow cytometry after double staining of the cells with Annexin-V-FITC and PI. […] (B) Quantitative analysis of apoptosis. […]
A-498 Cells were seeded at a density of 1 × 10^5 cells/well in 24-well plates and treated with compound 9c (6 µM) for 48 h. […] The DNA content of cells (10,000 cells/experimental group) was analyzed by flow cytometer at 488 nm using a FACSCalibur flow cytometer (BD Biosciences, San Jose, CA, USA) and all data were recorded and analyzed using the CellQuest Software (Becton-Dickinson Biosciences, San Jose, CA, USA). […]

Experiment [1] concerns SCaBER bladder squamous cell carcinoma cells. The experiment is described as follows: MTT cell proliferation assay, SCaBER. In kind it is cell-based. The conditions noted are these: Homo sapiens, 48 h, ±SEM. How it is done:
Cells were cultured in 96-well plate, at cell density of 1.2–1.8 × 10^4 cells/well, using Dulbecco’s Modified Eagle Medium (Invitrogen^TM, Carlsbad, CA, USA) supplemented with 10% (w/v) fetal bovine serum (Hyclone^TM, Marlborough, MA, USA), 10 ug/mL of insulin (Sigma-Aldrich^TM, St. Louis, MO, USA), and 1% (w/v) penicillin-streptomycin (Sigma-Aldrich^TM, St. Louis, MO, USA). Following 24h-incubation period under 5% CO2 at 37 °C, cells were treated with compounds’ serial concentrations (0.1 µM–100 µM) in DMSO, where the DMSO final concentration in the culture medium never exceeded 0.2% (v/v). Subsequently, the treated microplates were incubated for 48 h at 5% CO2/37 °C prior to examination under the inverted microscope and proceeding for the MTT assay. The culture medium was discarded and 100 µL of complete medium comprising 5 mg/mL MTT dye were dispensed within every well, then plates were reincubated for 2 h at 5% CO2/37 °C. […] Color intensity within each well was measured spectrophotometrically using the ROBONIK-P2000® ELISA microplate reader (Bio-Tek^TM, Winooski, VT, USA) at 450 nm while subtracting the background absorbance of multi well plates at 690 nm. The experiment was conducted in triplicates and IC50 values were estimated through linear regression between the logarithm-transformed compound concentrations and corresponding % cell viability = (mean absorbance in test wells/mean absorbance in control wells) ∗ 100, having the response variable slope (four parameters) for all samples.
Background: Tetrazolium assays rely on reduction of a dye to a coloured formazan, in cell work by metabolically active cells.

The target of another experiment is hCA-IX (Homo sapiens, UniProt Q16790). The experiment is described as follows: colorimetric CA-inhibition assay based on CA-esterase activity, hCA-IX.

Protocol for hCA-IX: Based on the kit manufacturer’s protocol, the candidate inhibitors were dissolved in DMSO at 10 × highest final test concentration and specific aliquots of such working dilutions were incubated with the target hCA isozyme for 10 min at room temperature prior to permit the formation of the enzyme-inhibitor complex. Triplicate experiments were performed for each candidate inhibitor concentration. Parallel wells of solvent and enzyme controls were prepared to test the solvent impact upon the activity of the target enzyme. […] Following incubation, the CA-substrate was added and changes in absorbance (at 405 nm) were monitored for 60 min at room temperature within the kinetic mode. The negative enzyme control wells (without added compounds) were arbitrarily set as 100% enzyme activity. […] Absorbance readings from background wells were subtracted from the compound assay wells in order to account for background hydrolysis activity caused by the buffer solution [44, 45].

What is called IC50 is the concentration needed to halve the response being measured. A low value points to greater potency in that assay. Turning to `CCCCNc1cc(-c2n[nH]c(=S)n2-c2ccc(Br)cc2)cc(S(N)(=O)=O)c1Oc1ccccc1` [Compound 9c], the “Annexin V-staining positive cells (total apoptotic cells)” value in the experiment on A-498 cells is 25.5%. The IC50 in experiment [1] was found to be 8.8 ± 1.9 µM; on hCA-IX (hCA-IX IC50, three replicate experiments), 0.00442 µM. For the same compound, the “Selectivity Ratio II/IX” value on hCA-IX (ratio of IC50 values for isozyme CA-II relative to CA-IX) turned out to be 72.4.
